Source: patent US7115636B2, “Hetrocyclic aryl sulphonamides” (Bayer Healthcare AG, priority 2001, dated 2006)

Key:
Assay type in all cases: cell-based
[1] = Cytotoxicity on HELF cells (anti-HCMV cytopathogenicity test plates); conditions: human, human lung fibroblasts (HELF), 6 days incubation
Description: (§1) The test compounds were employed as 50 millimolar (mM) solutions in dimethyl sulfoxide (DMSO). Ganciclovir, foscarnet and cidofovir served as reference compounds. After the addition of 2 μl in each case of the 50, 5, 0.5 and 0.05 mM DMSO stock solutions to 98 μl each of cell culture medium in row […] in duplicate, 1:2 dilutions using 50 μl each of medium up to row 11 of the 96-well plate were carried out. The wells in rows 1 and 12 each contained 50 μl of medium. 150 μl each of a suspension of 1×10^4 cells (human lung fibroblasts [HELF]) were then pipetted into the wells (row 1=cell control) or a mixture of HCMV-infected and non-infected HELF cells (M.O.I.=0.001-0.002), i.e. 1-2 infected cells to 1000 non-infected cells, was pipetted into rows 2-12. Row 12 (without substance) served as a virus control. The final test concentrations were 250-0.0005 μM. The plates were incubated at 37° C./5% CO2 for 6 days, i.e. until all cells were infected in the virus controls (100% cytopathogenic effect [CPE]). The wells were then fixed by addition of a mixture of formalin and Giemsa's stain and stained (30 minutes), washed with double-distilled water and dried at 50° C. in a drying oven. The plates were then evaluated visually using an overhead microscope (Plaque multiplier from Technomara). […]

[2] = tested on: HCMV (human cytomegalovirus); test: Anti-HCMV cytopathogenicity test; conditions: Human betaherpesvirus 5, 144 h; inhibition of CPE by 50%, HCMV-infected HELF cells, M.O.I. 0.001–0.002, 6 days
Description: as §1, with “Anti-HCMV (anti-human cytomegalovirus) and anti-MCMV (anti-murine cytomegalovirus) cytopathogenicity tests: The test” for “The test”

[3] = Cytotoxicity on 3T3 cells (anti-MCMV test); conditions: 3T3 mouse cells, 5 days incubation
[4] = tested on: MCMV (murine cytomegalovirus); test: Anti-MCMV cytopathogenicity test; conditions: Murid betaherpesvirus 1, 120 h; MCMV on 3T3 mouse cells, M.O.I. 0.05–0.1, 5 days
Description: Anti-HCMV (anti-human cytomegalovirus) and anti-MCMV (anti-murine cytomegalovirus) cytopathogenicity tests:
The test compounds were employed as 50 millimolar (mM) solutions in dimethyl sulfoxide (DMSO). Ganciclovir, foscarnet and cidofovir served as reference compounds. After the addition of 2 μl in each case of the 50, 5, 0.5 and 0.05 mM DMSO stock solutions to 98 μl each of cell culture medium in row 2 A-H in duplicate, 1:2 dilutions using 50 μl each of medium up to row 11 of the 96-well plate were carried out. The wells in rows 1 and 12 each contained 50 μl of medium. 150 μl each of a suspension of 1×10^4 cells (human lung fibroblasts [HELF]) were then pipetted into the wells (row 1=cell control) or a mixture of HCMV-infected and non-infected HELF cells (M.O.I.=0.001–0.002), i.e. 1–2 infected cells to 1000 non-infected cells, was pipetted into rows 2–12. Row 12 (without substance) served as a virus control. The final test concentrations were 250–0.0005 μM. The plates were incubated at 37° C./5% CO2 for 6 days, i.e. until all cells were infected in the virus controls (100% cytopathogenic effect [CPE]). The wells were then fixed by addition of a mixture of formalin and Giemsa's stain and stained (30 minutes), washed with double-distilled water and dried at 50° C. in a drying oven. The plates were then evaluated visually using an overhead microscope (Plaque multiplier from Technomara). […]

Row | SMILES | CC50 at 6 days [1] [nM] | EC50 [2] [nM] | CC50 at 5 days [3] [nM] | EC50 [4] [nM]
1 | CC1(C(=O)Nc2ccc(NS(=O)(=O)c3cccc(-c4noc([C@@H](N)CCCCN)n4)c3)cc2)CC1 [Example 1] | > 250000 | 28 | 18000 | 35
2 | CC(C)[C@H](N)c1nc(-c2ccc(S(=O)(=O)Nc3cccc(NC(=O)C(C)(C)CF)c3)cc2)no1 [Example 3, N-(3-{[(4-{5-[(1S)-1-Amino-2-methylpropyl]-1,2,4-oxadiazol-3-yl}phenyl)sulphonyl]amino}phenyl)-3-fluoro-2,2-dimethylpropanamide] | > 250000 | 74 | 63000 | 74
